# Measured values: paper PMC8309042, “Antimelanogenesis Effects of Leaf Extract and Phytochemicals from Ceylon Olive (Elaeocarpus serratus) in Zebrafish Model” (Pharmaceutics, 2021)
# Where two headings read alike, the source gives them in different places.
# What was measured:
# zebrafish embryo = test: Antimelanogenesis effect in zebrafish embryos (melanin content by ImageJ); format: in vivo, zebrafish (Danio rerio); settings: for IC50: Danio rerio, read-out: IC50 of melanogenesis inhibition activity in zebrafish; for effect on melanogenesis of zebrafish: concentration 50 μM
# Method: Zebrafish (Danio rerio) of wild-type AB strain were maintained in a healthy aquatic environment at 26–30 °C, with a 14:10 h light–dark cycle. After 9 h post fertilization (hpf), embryos were placed into a 24-well plate (3 embryos per well), treated with various final concentrations of specimens dissolved in 1% DMSO, and incubated at 28 °C for 48 h (at 57 hpf). The digital image of live zebrafish embryo was taken through a stereomicroscope (Olympus SZ61, Tokyo, Japan) at a total magnification of 40×; then, the melanin content of zebrafish embryo was analyzed by the ImageJ software. […] The number of replications was six.
# mushroom tyrosinase = test: Enzyme kinetic study (Lineweaver–Burk plot); format: biochemical; settings: for Potential (trend of Vmax with concentration): 0-100 μg/mL; for Inhibition Type: L-tyrosine and L-DOPA substrates, Lineweaver–Burk
# Method: Enzyme kinetic study is analyzed by the Lineweaver–Burk reciprocal plot of the reaction rate and the concentration of the substrate to evaluate the effect of the specimen on the affinity of the substrate and enzyme. […] The reaction was similar to antityrosinase assay as described above; 40 µL of specimen solution and 70 µL of potassium phosphate buffer (0.1 M, pH 6.8) were mixed, which was followed by adding 50 µL of 200 unit/mL tyrosinase, after incubation at 25 °C for 10 min.
# [1] = embryos treated 9 hpf to 57 hpf (48 h)
SMILES,Potential (trend of Vmax with concentration) (mushroom tyrosinase; L-DOPA substrate),Potential (trend of Vmax with concentration) (mushroom tyrosinase; L-Tyrosine substrate),Inhibition Type (mushroom tyrosinase),Inhibition Type (mushroom tyrosinase; listed as gallic acid),Inhibition Type (mushroom tyrosinase; listed as mearnsetin),IC50 (zebrafish embryo; [1]),effect on melanogenesis of zebrafish (zebrafish embryo),"IC50 (zebrafish embryo; embryos treated 9 hpf to 57 hpf (48 h), dash defined in footnote)",IC50 (zebrafish embryo; 48 h)
"OC[C@H]1O[C@@H](Oc2ccc(O)cc2)[C@H](O)[C@@H](O)[C@@H]1O [Arbutin, arbutin, reference compound]",,,,,,324 ± 19.8 µM,could reduce the melanin formation,,
"NC(=S)Nc1ccccc1 [PTU, 1-phenyl-2-thiourea, reference compound]",,,,,,,could reduce the melanin formation,,26.3 ± 4.17 µM

# Further lines, with some results ahead:
Potential (trend of Vmax with concentration) (mushroom tyrosinase; L-DOPA substrate),Potential (trend of Vmax with concentration) (mushroom tyrosinase; L-Tyrosine substrate),Inhibition Type (mushroom tyrosinase),Inhibition Type (mushroom tyrosinase; listed as gallic acid),Inhibition Type (mushroom tyrosinase; listed as mearnsetin),SMILES,IC50 (zebrafish embryo; [1]),effect on melanogenesis of zebrafish (zebrafish embryo),"IC50 (zebrafish embryo; embryos treated 9 hpf to 57 hpf (48 h), dash defined in footnote)",IC50 (zebrafish embryo; 48 h)
―,―,Competitive,competitive inhibitor,,O=C(O)c1cc(O)c(O)c(O)c1 [Gallic acid],,,> 400 µM,
―,―,Competitive,,competitive inhibitor,"COc1c(O)cc(-c2oc3cc(O)cc(O)c3c(=O)c2O)cc1O [Mearnsetin, 4′-O-methyl myricetin]",121 ± 0.96 µM,better melanogenesis inhibition activity,,
↓,↓,mixed-type inhibitor,,,O=c1c(O)c(-c2cc(O)c(O)c(O)c2)oc2cc(O)cc(O)c12 [Myricetin],350 ± 42.7 µM,slight melanin inhibition effect,,
